From patent US11629171B2, “Beta-hairpin peptidomimetics” (POLYPHOR AG, priority 2017, dated 2023) come the findings set out here.

The subject of series [1] is male ICR mice. The series is described as follows: Tolerability in a mouse model (Maximum Tolerated Dose assay). In kind it is in vivo. The conditions noted are these: 2 × 40 mg/kg s.c. at a 12-hr interval, groups of 3. The essentials: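 Peptides in 0.9% NaCl (pH 6.5-7.6) given s.c. at 30 or 40 mg/kg, twice 12 h apart, to groups of 3 male ICR mice (23±3 g). Acute toxic signs (mortality, convulsions, tremors, sedation) and autonomic effects (diarrhea, salivation, piloerection) observed for 30 min after each dose.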

Series [2] deals with human red blood cells (hRBC). The series is described as follows: Hemolysis. In kind it is cell-based. The settings on record: red cells of human, 1 h, 200. The essentials: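 Washed fresh hRBC (20% v/v) were incubated with peptides at 200 μg/mL for 1 h at 37° C with shaking at 300 rpm. Supernatant OD540 was read after centrifugation and dilution, blank-corrected, and expressed as percent of the 2% Triton X-100 (100% lysis) control; PBS with 10% water gave 0%.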

The subject of series [3] is Acinetobacter baumannii DSM 30008. In kind it is cell-based. The settings on record: DSM 30008. The procedure, abridged: (§1)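 Cation-adjusted MH-II broth, 0.002% polysorbate 80, inoculum near 10^6 CFU/mL. MIC read visually after 18-20 h, 35° C; units μg/mL.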
Series [4] deals with Escherichia coli ATCC 25922. In kind it is cell-based. The conditions noted are these: ATCC 25922. The essentials: as §1
Series [5] concerns Klebsiella pneumoniae SSI #3010. In kind it is cell-based. The settings on record: SSI #3010. The procedure, abridged: as §1
The test system of series [6] is Acinetobacter baumannii 872842. In kind it is cell-based. The conditions noted are these: 872842. The essentials:
as §1

The test system of series [7] is Klebsiella pneumoniae 968733. The format is cell-based. The settings on record: 968733. The procedure, abridged: as §1
Series [8] concerns Pseudomonas aeruginosa ATCC 27853. The format is cell-based. The conditions noted are these: ATCC 27853. The procedure, abridged:
as §1

In series [9] the test system is Escherichia coli 926415. In kind it is cell-based. The settings on record: 926415. The essentials: as §1
Series [10] has as its system Enterobacter cloacae 848840. In kind it is cell-based. The conditions noted are these: 848840. The procedure, abridged:
as §1

Converted amounts (≈) assume the structure as drawn. Where a SMILES comes first, the peptide text is derived from it. Bridges are numbered along the chain shown (N, C = ends). Roman numbers before positions name the chains, in order. [ ]: non-standard residue; d: D form. Hiv = CC(C)[C@H](O)C(=O)O; dDab = NCC[C@@H](N)C(=O)O; Orn = NCCC[C@H](N)C(=O)O; Dab = NCC[C@H](N)C(=O)O; Dap = NC[C@H](N)C(=O)O

Take `CC(C)C[C@@H]1NC(=O)[C@@H](CC(C)C)NC(=O)[C@H](CCN)NC(=O)[C@@H](NC(=O)[C@H](CN)NC(=O)[C@@H](NC(=O)[C@H](CCN)NC(=O)CC[C@@H]2NC(=O)[C@H](CCN)NC(=O)[C@H](Cc3ccc(O)cc3)NC(=O)[C@@H](NC(=O)[C@@H](O)C(C)C)CSSC[C@@H](C(=O)N[C@H](CO)C(N)=O)NC(=O)[C@H](C(C)C)NC(=O)[C@H](CO)NC(=O)[C@H](Cc3c[nH]c4ccccc34)NC(=O)[C@H](CO)NC(=O)[C@@H](CCN)NC2=O)[C@@H](C)O)CCNC(=O)[C@H]([C@@H](C)O)NC(=O)[C@H](CCN)NC(=O)[C@H](CCN)NC1=O` [Ex. 344] (I: H-[Hiv]CY[Dab]E[dDab]SWSVC[dS]-NH2 / II: [Dab]T[Dap][Dab][Dab][dL]L[Dab][Dab]T; disulfide I:2-I:11; amide I:5-II:N; lactam II:4-II:C): the Mortality and dose in [1] is listed as 0/3 died at 2 × 40 mg/kg. Besides, the “Hemolysis at 200 μg/mL” value in series [2] was under 1%. In series [3], the “Acinetobacter baumannii DSM 30008 MIC” value is 0.125 mg/L. For the same molecule, the “Escherichia coli ATCC 25922 MIC” value in series [4] amounted to 0.0625 mg/L. In [5], the “Klebsiella pneumoniae SSI #3010 MIC” value stood at 0.0625 mg/L. Also, the MIC (usually the smallest concentration in the dilution series that meets the test's criterion for growth inhibition) was determined as 0.25 mg/L (≈ 0.106 µM) in series [6], 0.25 mg/L (≈ 0.106 µM) in [7], 0.125 mg/L (≈ 0.053 µM) in series [9] and 1 mg/L (≈ 0.424 µM) in [10]. In series [8], the “Pseudomonas aeruginosa ATCC 27853 MIC” value amounted to 0.125 mg/L.
For `CC(=O)N[C@H](C(=O)N[C@H]1CSSC[C@@H](C(=O)N[C@@H](CO)C(N)=O)NC(=O)[C@H](C(C)C)NC(=O)[C@H](CO)NC(=O)[C@H](Cc2c[nH]c3ccccc23)NC(=O)[C@H](CCN)NC(=O)CNC(=O)[C@H](CCC(=O)N[C@@H](CCN)C(=O)N[C@H](C(=O)N[C@@H](CN)C(=O)N[C@H]2CCNC(=O)[C@H]([C@@H](C)O)NC(=O)[C@H](CCN)NC(=O)[C@H](CCN)NC(=O)[C@H](CC(C)C)NC(=O)[C@@H](CC(C)C)NC(=O)[C@H](CCN)NC2=O)[C@@H](C)O)NC(=O)[C@H](CCN)NC(=O)[C@H](Cc2ccc(O)cc2)NC1=O)C(C)C` [Ex. 345] (I: Ac-VCY[Dab]EG[Dab]WSVCS-NH2 / II: [Dab]T[Dap][Dab][Dab][dL]L[Dab][Dab]T; disulfide I:2-I:11; amide I:5-II:N; lactam II:4-II:C), the Mortality and dose in series [1] was 0/3 died at 2 × 40 mg/kg. For the same molecule, the “Hemolysis at 200 μg/mL” value in series [2] was under 1%. In addition, the “Acinetobacter baumannii DSM 30008 MIC” value in series [3] amounted to 0.0625 mg/L. Moreover, the “Escherichia coli ATCC 25922 MIC” value in [4] is 0.0625 mg/L. In addition, the “Klebsiella pneumoniae SSI #3010 MIC” value in [5] is 0.0625 mg/L. Further, the MIC in series [6] came to 0.125 mg/L (≈ 0.0528 µM); in series [7], 0.25 mg/L (≈ 0.106 µM); in [9], 0.125 mg/L (≈ 0.0528 µM); in series [10] it was 0.125 mg/L (≈ 0.0528 µM). Besides, the “Pseudomonas aeruginosa ATCC 27853 MIC” value in [8] was 0.125 mg/L.
For `CC(=O)N[C@H](C(=O)N[C@H]1CSSC[C@@H](C(=O)N[C@@H](CO)C(N)=O)NC(=O)[C@H](C(C)C)NC(=O)[C@H](CO)NC(=O)[C@H](Cc2c[nH]c3ccccc23)NC(=O)CNC(=O)[C@@H](CCN)NC(=O)[C@H](CCC(=O)N[C@@H](CCN)C(=O)N[C@H](C(=O)N[C@@H](CN)C(=O)N[C@H]2CCNC(=O)[C@H]([C@@H](C)O)NC(=O)[C@H](CCN)NC(=O)[C@H](CCN)NC(=O)[C@H](CC(C)C)NC(=O)[C@@H](CC(C)C)NC(=O)[C@H](CCN)NC2=O)[C@@H](C)O)NC(=O)[C@H](CCN)NC(=O)[C@H](Cc2ccc(O)cc2)NC1=O)C(C)C` [Ex. 350] (I: Ac-VCY[Dab]E[dDab]GWSVCS-NH2 / II: [Dab]T[Dap][Dab][Dab][dL]L[Dab][Dab]T; disulfide I:2-I:11; amide I:5-II:N; lactam II:4-II:C), in series [1], the Mortality and dose is on record as 0/3 died at 2 × 40 mg/kg. The “Hemolysis at 200 μg/mL” value in series [2] is given as under 1%. In addition, the “Acinetobacter baumannii DSM 30008 MIC” value in series [3] came out at 0.03125 mg/L. The “Escherichia coli ATCC 25922 MIC” value in series [4] worked out at 0.03125 mg/L. The “Klebsiella pneumoniae SSI #3010 MIC” value in series [5] was found to be 0.125 mg/L. Also, the MIC came out at 0.0625 mg/L (≈ 0.0264 µM) in [6], 0.125 mg/L (≈ 0.0528 µM) in [7], 0.125 mg/L (≈ 0.0528 µM) in series [9] and 0.125 mg/L (≈ 0.0528 µM) in series [10]. Besides, in [8], the “Pseudomonas aeruginosa ATCC 27853 MIC” value amounted to 0.125 mg/L.
For the molecule `CC(=O)N[C@H](C(=O)N[C@H]1CCNC(=O)C[C@@H](C(=O)N[C@@H](CO)C(N)=O)NC(=O)[C@H](C(C)C)NC(=O)[C@H](CO)NC(=O)[C@H](Cc2c[nH]c3ccccc23)NC(=O)CNC(=O)[C@@H](CCN)NC(=O)[C@H](CCC(=O)N[C@@H](CCN)C(=O)N[C@H](C(=O)N[C@@H](CN)C(=O)N[C@H]2CCNC(=O)[C@H]([C@@H](C)O)NC(=O)[C@H](CCN)NC(=O)[C@H](CCN)NC(=O)[C@H](CC(C)C)NC(=O)[C@@H](CC(C)C)NC(=O)[C@H](CCN)NC2=O)[C@@H](C)O)NC(=O)[C@H](CCN)NC(=O)[C@H](Cc2ccc(O)cc2)NC1=O)C(C)C` [Ex. 351] (I: Ac-V[Dab]Y[Dab]E[dDab]GWSVDS-NH2 / II: [Dab]T[Dap][Dab][Dab][dL]L[Dab][Dab]T; lactam I:2-I:11, II:4-II:C; amide I:5-II:N), the Mortality and dose in series [1] was 0/3 died at 2 × 40 mg/kg. In [2], the “Hemolysis at 200 μg/mL” value is on record as under 1%. Further, the “Acinetobacter baumannii DSM 30008 MIC” value in series [3] came to 0.0625 mg/L. Besides, the “Escherichia coli ATCC 25922 MIC” value in [4] was found to be 0.0625 mg/L. The “Klebsiella pneumoniae SSI #3010 MIC” value in series [5] turned out to be 0.0625 mg/L. The MIC in series [6] was 0.25 mg/L (≈ 0.106 µM); in series [7], 1 mg/L (≈ 0.423 µM); in series [9] it was 0.5 mg/L (≈ 0.212 µM); in series [10] it was 0.25 mg/L (≈ 0.106 µM). Also, in series [8], the “Pseudomonas aeruginosa ATCC 27853 MIC” value was found to be 0.125 mg/L.
As for `CC(=O)N[C@H](C(=O)N[C@H]1CSSC[C@@H](C(=O)N[C@@H](CO)C(N)=O)NC(=O)[C@H](C(C)C)NC(=O)[C@H](CO)NC(=O)[C@H](Cc2c[nH]c3ccccc23)NC(=O)[C@H](CCC(=O)N[C@@H](CCN)C(=O)N[C@H](C(=O)N[C@@H](CN)C(=O)N[C@H]2CCNC(=O)[C@H]([C@@H](C)O)NC(=O)[C@H](CCN)NC(=O)[C@H](CCN)NC(=O)[C@H](CC(C)C)NC(=O)[C@@H](CC(C)C)NC(=O)[C@H](CCN)NC2=O)[C@@H](C)O)NC(=O)[C@@H](CCN)NC(=O)[C@H](Cc2c[nH]cn2)NC(=O)[C@H](CO)NC(=O)[C@H](Cc2ccc(O)cc2)NC1=O)C(C)C` [Ex. 358] (I: Ac-VCYSH[dDab]EWSVCS-NH2 / II: [Dab]T[Dap][Dab][Dab][dL]L[Dab][Dab]T; disulfide I:2-I:11; amide I:7-II:N; lactam II:4-II:C), the Mortality and dose in series [1] is 0/3 died at 2 × 40 mg/kg. The “Hemolysis at 200 μg/mL” value in [2] was 1%. In addition, in series [3], the “Acinetobacter baumannii DSM 30008 MIC” value is 0.03125 mg/L. For the same molecule, the “Escherichia coli ATCC 25922 MIC” value in series [4] was 0.03125 mg/L. In addition, the “Klebsiella pneumoniae SSI #3010 MIC” value in series [5] is 0.125 mg/L. The MIC was 0.0625 mg/L (≈ 0.0257 µM) in series [6], 0.25 mg/L (≈ 0.103 µM) in [7], 0.25 mg/L (≈ 0.103 µM) in series [9] and 0.125 mg/L (≈ 0.0513 µM) in [10]. In series [8], the “Pseudomonas aeruginosa ATCC 27853 MIC” value came to 0.125 mg/L.
In the case of `CC(=O)N[C@H](C(=O)N[C@H]1CSSC[C@@H](C(=O)N[C@@H](CO)C(N)=O)NC(=O)[C@H](C(C)C)NC(=O)[C@H](CO)NC(=O)[C@H](Cc2c[nH]c3ccccc23)NC(=O)[C@H](CCC(=O)N[C@@H](CCN)C(=O)N[C@H](C(=O)N[C@@H](CN)C(=O)N[C@H]2CCNC(=O)[C@H]([C@@H](C)O)NC(=O)[C@H](CCN)NC(=O)[C@H](CCN)NC(=O)[C@H](CC(C)C)NC(=O)[C@@H](CC(C)C)NC(=O)[C@H](CCN)NC2=O)[C@@H](C)O)NC(=O)[C@@H](CCN)NC(=O)[C@H](CCCN)NC(=O)[C@H](CCN)NC(=O)[C@H](Cc2ccc(O)cc2)NC1=O)C(C)C` [Ex. 359] (I: Ac-VCY[Dab][Orn][dDab]EWSVCS-NH2 / II: [Dab]T[Dap][Dab][Dab][dL]L[Dab][Dab]T; disulfide I:2-I:11; amide I:7-II:N; lactam II:4-II:C), in [1], the Mortality and dose was 0/3 died at 2 × 40 mg/kg. Besides, the “Hemolysis at 200 μg/mL” value in series [2] turned out to be 1%. In [3], the “Acinetobacter baumannii DSM 30008 MIC” value was 0.0625 mg/L. Moreover, the “Escherichia coli ATCC 25922 MIC” value in [4] came to 0.0625 mg/L. For the same molecule, in series [5], the “Klebsiella pneumoniae SSI #3010 MIC” value stood at 0.125 mg/L. In addition, the minimal inhibitory concentration (MIC) in series [6] worked out at 0.125 mg/L (≈ 0.0515 µM); in series [7], 0.5 mg/L (≈ 0.206 µM); in [9], 0.25 mg/L (≈ 0.103 µM); in [10] it was 0.125 mg/L (≈ 0.0515 µM). Moreover, the “Pseudomonas aeruginosa ATCC 27853 MIC” value in series [8] was found to be 0.125 mg/L.
